Test results reported in patent US20090155815A1, “CRYSTAL STRUCTURE OF THE CARBOXYL TRANSFERASE DOMAIN OF HUMAN ACETYL-COA CARBOXYLASE 2 PROTEIN (ACC2 CT) AND USES THEREOF” (priority 2007, published 2009).
Read-outs that look alike come from different tables or passages of the source.

System: ACC2 CT
Assay: NADH reverse-coupled assay
Assay type: biochemical, human
Settings: reverse reaction
Procedure: In the reverse reaction, ACC2 CT catalyzes the production of Acetyl CoA using malonyl CoA and biocytin as the substrates.
The activity of ACC2 CT in the reverse reaction is measured indirectly by coupling the reaction with two other enzymes, malate dehydrogenase and citrate synthase. Malate dehydrogenase converts NAD+ and malate to produce NADH and oxaloacetate. The acetyl CoA produced by the ACC2 CT reverse reaction and the oxaloacetate produced by the malate dehydrogenase reaction are consumed as the substrates for the citrate synthase reaction. The final products of the citrate synthase reaction are citric acid and CoA, but it is the production of NADH that acts as the readout for the activity of ACC2 CT. The conversion of NAD+ to NADH is detected by reading absorbance at 340 nm.
The final assay conditions are 50 nM ACC2 CT, 1 mM Malonyl CoA, 20 mM Biocytin, 8 mM Malic Acid, 3 mM NAD+, 100 units/mL Malate Dehydrogenase, 20 units/mL Citrate Synthase, 50 mM Hepes pH 7.0, 100 mM NaCl, 0.01% Tween 20, and compounds are used with a 200-fold dilution of 100% DMSO stock for a final concentration of 0.5% DMSO.
Absorbance data is collected at 340 nm and 37° C. for at least 30 minutes. Linear kinetic rates (mOD/min) are used to calculate % inhibition values of the compounds tested.

Row | Km (could not be precisely determined, estimated, read-out: kM of Biocytin) [µM] | Km (against 50 nM ACC2/20 mM Biocytin, 37° C., absorbance 340 nm, read-out: kM of Malonyl CoA) [µM] | Km (against ACC2/No Biocytin, 37° C., absorbance 340 nm, read-out: kM of Malonyl CoA) [µM] | SMILES
1 | ~20000 |  |  | N[C@@H](CCCCNC(=O)CCCC[C@@H]1SC[C@@H]2NC(=O)N[C@@H]21)C(=O)O [Biocytin]
2 |  | 160 | 130 | CC(C)(COP(=O)(O)OP(=O)(O)OC[C@H]1O[C@@H](n2cnc3c(N)ncnc32)[C@H](O)[C@@H]1OP(=O)(O)O)[C@@H](O)C(=O)NCCC(=O)NCCSC(=O)CC(=O)O [Malonyl CoA]
